Tests used:
sortilin [1] = biological target: T1, sortilin (Homo sapiens, UniProt Q99523); assay: 3H-neurotensin-binding sortilin scintillation proximity assay (SPA); details: for IC50: 150 nM sortilin, 5 nM 3H-neurotensin, averages of at least four determinations, read-out: IC50 (displacement of 3H-neurotensin binding to sortilin); for activity in SPA assay (in words): structure-activity relationship relative to hit 1a
T1 construct: The extracellular Vps10p domain of sortilin was overexpressed in HEK293F cells and purified from the medium; made in house; host or cells: HEK293F
T1 sequence (Q99523 78-755 limits assumed): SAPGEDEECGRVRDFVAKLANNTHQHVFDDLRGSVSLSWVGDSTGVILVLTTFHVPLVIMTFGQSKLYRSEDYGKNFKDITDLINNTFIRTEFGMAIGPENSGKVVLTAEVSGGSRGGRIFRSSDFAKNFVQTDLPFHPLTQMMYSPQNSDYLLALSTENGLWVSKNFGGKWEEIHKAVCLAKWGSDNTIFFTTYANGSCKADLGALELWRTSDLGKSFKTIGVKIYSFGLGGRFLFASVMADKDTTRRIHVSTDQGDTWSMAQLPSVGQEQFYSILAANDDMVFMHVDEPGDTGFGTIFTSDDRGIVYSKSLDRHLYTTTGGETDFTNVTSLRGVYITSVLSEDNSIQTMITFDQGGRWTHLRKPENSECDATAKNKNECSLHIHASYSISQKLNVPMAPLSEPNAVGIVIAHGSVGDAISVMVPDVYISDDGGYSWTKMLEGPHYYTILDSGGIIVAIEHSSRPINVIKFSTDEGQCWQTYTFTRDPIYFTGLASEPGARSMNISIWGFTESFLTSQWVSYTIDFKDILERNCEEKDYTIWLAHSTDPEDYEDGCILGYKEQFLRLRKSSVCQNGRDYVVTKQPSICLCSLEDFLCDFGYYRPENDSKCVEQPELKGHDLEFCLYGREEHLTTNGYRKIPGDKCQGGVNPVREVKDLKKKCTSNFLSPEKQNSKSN
Protocol: The open reading frame of human sortilin including the endogenous signal peptide to residue 723 was amplified by PCR and cloned into the pCEP-pu vector with XbaI and XhoI. The primers were designed to include a C-terminal factor Xa site followed by a hexahistidine tag. HEK293F cells were transfected with 900 µg plasmid, applying 900 µl FreeStyle MAX reagent (Invitrogen) according to the manufacturer’s instructions, and were grown in 900 ml FreeStyle 293 medium (Invitrogen) in a 3 l Erlenmeyer flask for 7 d. The medium was harvested by centrifugation at 3700g for 15 min, filtered through a 0.40 µm filter and the pH was adjusted by supplementation with Tris–HCl pH 8.0 to a final concentration of 50 mM. A 5 ml Ni–NTA column (GE Healthcare) was equilibrated in buffer A (50 mM Tris–HCl pH 8.0, 150 mM NaCl) and the medium was recirculated over the column overnight. The column was washed with five column volumes of wash buffer (50 mM Tris–HCl pH 8.0, 150 mM NaCl, 10 mM imidazole) and sortilin was eluted with a ten-column-volume imidazole gradient (10–250 mM imidazole). Fractions containing sortilin were pooled and concentrated by […] (Vivaspin 20, 10 kDa cutoff, Sartorius). The sortilin was applied onto a Superdex 200 10/300 GL column (GE Healthcare) equilibrated in buffer A. Fractions containing sortilin were pooled, concentrated to a final concentration of 5 mg ml^−1, flash-frozen in liquid nitrogen and stored at −80°C.
The compound affinity was determined by measuring the displacement of ^3H-neurotensin binding to sortilin using a scintillation proximity assay (SPA). Experiments were performed in assay buffer (50 mM HEPES pH 7.4, 100 mM NaCl, 2.0 mM CaCl2, 0.1% BSA, 0.1% Tween-20) with a total volume of 40 µl. The compound was pre-incubated for 30 min at room temperature with 150 nM sortilin before 5 nM ^3H-neurotensin and Ni-chelate imaging beads (Perkin Elmer) were added. After 6 h, the plate was read on a ViewLux with 360 s exposure time. Unlabelled neurotensin and a DMSO blank were used as positive and negative controls, respectively. Dose-response evaluation of compounds was performed with ten concentrations of 1a–1h and AF40431 (covering concentrations between 2.5 nM and 50 µM). The half-maximal inhibitory concentration (IC50) values were calculated by nonlinear regression using the sigmoid concentration response (variable slope) in XLfit 4 (IDBS, UK). All values reported are the averages of at least four determinations.

proNGF (Homo sapiens) = proNGF (Homo sapiens) (UniProt P01138); details: cited from earlier work
sortilin [2] = biological target: T2, sortilin (Homo sapiens, UniProt Q99523); assay: Isothermal titration calorimetry (ITC) of binding to sortilin; details: 25°C, PBS pH 7.4, 4% DMSO, read-out: dissociation constant (Kd)
T2 construct: The extracellular Vps10p domain of sortilin was overexpressed in HEK293F cells and purified from the medium; made in house; host or cells: HEK293F
T2 sequence (Q99523 78-756): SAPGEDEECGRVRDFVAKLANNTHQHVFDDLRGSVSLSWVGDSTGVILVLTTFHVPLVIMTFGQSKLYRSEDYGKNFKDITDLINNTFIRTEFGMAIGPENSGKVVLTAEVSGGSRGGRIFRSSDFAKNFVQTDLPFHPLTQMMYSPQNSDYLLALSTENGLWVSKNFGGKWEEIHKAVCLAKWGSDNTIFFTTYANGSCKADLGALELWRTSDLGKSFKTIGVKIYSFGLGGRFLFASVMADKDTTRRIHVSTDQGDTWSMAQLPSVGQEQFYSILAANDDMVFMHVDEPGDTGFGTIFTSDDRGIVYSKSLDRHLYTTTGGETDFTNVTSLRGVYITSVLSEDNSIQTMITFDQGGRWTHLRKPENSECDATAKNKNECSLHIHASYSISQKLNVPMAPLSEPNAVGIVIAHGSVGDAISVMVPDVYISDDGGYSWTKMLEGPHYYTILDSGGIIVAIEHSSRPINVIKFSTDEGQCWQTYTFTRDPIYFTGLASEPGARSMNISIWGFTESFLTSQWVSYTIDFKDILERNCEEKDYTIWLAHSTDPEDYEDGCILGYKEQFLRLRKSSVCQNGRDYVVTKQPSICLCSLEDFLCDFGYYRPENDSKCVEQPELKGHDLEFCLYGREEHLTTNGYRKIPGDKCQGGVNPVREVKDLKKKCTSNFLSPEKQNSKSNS
Protocol: The open reading frame of human sortilin including the endogenous signal peptide to residue 723 was amplified by PCR and cloned into the pCEP-pu vector with XbaI and XhoI. The primers were designed to include a C-terminal factor Xa site followed by a hexahistidine tag. HEK293F cells were transfected with 900 µg plasmid, applying 900 µl FreeStyle MAX reagent (Invitrogen) according to the manufacturer’s instructions, and were grown in 900 ml FreeStyle 293 medium (Invitrogen) in a 3 l Erlenmeyer flask for 7 d. The medium was harvested by centrifugation at 3700g for 15 min, filtered through a 0.40 µm filter and the pH was adjusted by supplementation with Tris–HCl pH 8.0 to a final concentration of 50 mM. A 5 ml Ni–NTA column (GE Healthcare) was equilibrated in buffer A (50 mM Tris–HCl pH 8.0, 150 mM NaCl) and the medium was recirculated over the column overnight. […]
The binding of AF40431 to sortilin was measured by isothermal titration calorimetry (ITC). […] Heat evolving from dilution was measured by injecting the ligand into PBS supplemented with 4% DMSO. […] Finally, the binding stoichiometry (n), equilibrium dissociation constant (K d), molar enthalpy and entropy changes for the binding processes were determined by analyzing the titration data using Origin software (OriginLab, Northampton, Massachusetts, USA).

NTSR1 = NTSR1 (Homo sapiens, UniProt P30989); assay: Competition of NTS binding to NTSR1; details: data not shown
NTSR1, sequence (P30989 whole entry, species assumed): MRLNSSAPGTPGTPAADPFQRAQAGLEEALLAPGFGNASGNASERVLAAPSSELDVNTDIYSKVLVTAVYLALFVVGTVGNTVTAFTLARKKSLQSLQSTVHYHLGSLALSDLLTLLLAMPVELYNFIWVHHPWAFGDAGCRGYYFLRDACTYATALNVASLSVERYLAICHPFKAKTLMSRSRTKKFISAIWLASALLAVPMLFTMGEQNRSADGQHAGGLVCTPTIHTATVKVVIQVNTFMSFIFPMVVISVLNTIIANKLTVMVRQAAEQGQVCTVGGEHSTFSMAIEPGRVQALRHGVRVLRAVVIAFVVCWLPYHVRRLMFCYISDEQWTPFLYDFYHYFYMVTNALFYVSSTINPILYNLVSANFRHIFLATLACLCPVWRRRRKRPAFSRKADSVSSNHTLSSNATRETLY

proNGF (Homo sapiens), sequence (P01138 122-241): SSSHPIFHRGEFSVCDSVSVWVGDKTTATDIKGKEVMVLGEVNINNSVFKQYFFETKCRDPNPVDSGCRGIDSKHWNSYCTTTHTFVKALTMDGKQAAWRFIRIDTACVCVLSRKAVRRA

Compound	IC50 (sortilin [1]) [µM]	activity in SPA assay (in words) (sortilin [1])	Kd (sortilin [2]) [µM]	IC50 (NTSR1) [µM]	Kd (proNGF (Homo sapiens)) [µM]
Cc1cc(=O)oc2c(CN[C@H](CC(C)C)C(=O)O)c(O)ccc12 [Compound 1h]	> 50	inactive	–	–	–
Cc1cc(=O)oc2c(CNC(C(=O)O)C(C)C)c(O)ccc12 (stereo not shown) [Compound 1e]	> 50	activity was ablated	–	–	–
Cc1cc(=O)oc2c(CNC(Cc3ccccc3)C(=O)O)c(O)ccc12 (stereo not shown) [Compound 1g]	> 50	activity was ablated	–	–	–
Sortilin (from UniProt Q99523)	–	–	–	–	0.00016
Cc1cc(=O)oc2c(CNC(C)C(=O)O)c(O)ccc12 (stereo not shown) [Compound 1f]	> 50	activity was ablated	–	–	–

Further compounds by falling IC50 (sortilin [1]), results first:

IC50 (sortilin [1]) [µM]	activity in SPA assay (in words) (sortilin [1])	Kd (sortilin [2]) [µM]	IC50 (NTSR1) [µM]	Compound	Kd (proNGF (Homo sapiens)) [µM]
6.1 ± 2.7	activity was retained	–	–	CCC(C)C(NCc1c(O)ccc2c(C)cc(=O)oc12)C(=O)O (stereo not shown) [Compound 1b]	–
4.4 ± 0.7	–	0.7	> 50	Cc1cc(=O)oc2c(CN[C@@H](CC(C)C)C(=O)O)c(O)ccc12 [AF40431]	–
3.1 ± 1.1	activity was retained	–	–	Cc1cc(=O)oc2c(CNC(CC(C)(C)C)C(=O)O)c(O)ccc12 (stereo not shown) [Compound 1c]	–
1.8	–	–	–	Cc1cc(=O)oc2c(CNC(CC(C)C)C(=O)O)c(O)ccc12 (stereo not shown) [Compound 1a]	–
1.7 ± 0.3	activity was retained	–	–	Cc1cc(=O)oc2c(CNC(C(=O)O)C3CCCCC3)c(O)ccc12 (stereo not shown) [Compound 1d]	–

Source: paper PMC3940197, “Identification of the first small-molecule ligand of the neuronal receptor sortilin and structure determination of the receptor–ligand complex” (Acta Crystallographica Section D: Biological Crystallography, 2014)
